ChEMBL document CHEMBL6096654, “Allosteric inhibition of PTP1B by bromocatechol-chalcone derivatives” (Eur J Med Chem, 2025)
pIC50, pKi: −log10 of the molar value. The source made the active and inactive calls. No cut-off for these calls is given here.

How the values were obtained:
[1] = molecular target: T1, Tyrosine-protein phosphatase non-receptor type 1 (Homo sapiens, UniProt P18031); assay: Allosteric inhibition of PTP1B (unknown origin) using pNPP as substrate incubated for 30 mins by spectrophotometry
T1 sequence (P18031 whole entry): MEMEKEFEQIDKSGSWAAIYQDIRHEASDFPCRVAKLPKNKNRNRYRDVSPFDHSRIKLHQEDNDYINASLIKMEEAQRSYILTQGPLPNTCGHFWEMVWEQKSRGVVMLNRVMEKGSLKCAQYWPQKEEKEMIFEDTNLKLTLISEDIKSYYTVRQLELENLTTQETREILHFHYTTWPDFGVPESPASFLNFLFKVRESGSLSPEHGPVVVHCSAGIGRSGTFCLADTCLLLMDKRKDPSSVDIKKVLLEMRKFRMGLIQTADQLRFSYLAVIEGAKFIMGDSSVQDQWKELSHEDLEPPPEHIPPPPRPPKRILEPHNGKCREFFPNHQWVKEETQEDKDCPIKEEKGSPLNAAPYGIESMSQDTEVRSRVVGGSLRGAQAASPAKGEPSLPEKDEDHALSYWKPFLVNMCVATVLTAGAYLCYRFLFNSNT

[2] = molecular target: T2, Tyrosine-protein phosphatase non-receptor type 11 (Homo sapiens, UniProt Q06124); assay: Inhibition of SHP2 (unknown origin) using pNPP as substrate incubated for 30 mins by spectrophotometry
T2 sequence (Q06124 whole entry): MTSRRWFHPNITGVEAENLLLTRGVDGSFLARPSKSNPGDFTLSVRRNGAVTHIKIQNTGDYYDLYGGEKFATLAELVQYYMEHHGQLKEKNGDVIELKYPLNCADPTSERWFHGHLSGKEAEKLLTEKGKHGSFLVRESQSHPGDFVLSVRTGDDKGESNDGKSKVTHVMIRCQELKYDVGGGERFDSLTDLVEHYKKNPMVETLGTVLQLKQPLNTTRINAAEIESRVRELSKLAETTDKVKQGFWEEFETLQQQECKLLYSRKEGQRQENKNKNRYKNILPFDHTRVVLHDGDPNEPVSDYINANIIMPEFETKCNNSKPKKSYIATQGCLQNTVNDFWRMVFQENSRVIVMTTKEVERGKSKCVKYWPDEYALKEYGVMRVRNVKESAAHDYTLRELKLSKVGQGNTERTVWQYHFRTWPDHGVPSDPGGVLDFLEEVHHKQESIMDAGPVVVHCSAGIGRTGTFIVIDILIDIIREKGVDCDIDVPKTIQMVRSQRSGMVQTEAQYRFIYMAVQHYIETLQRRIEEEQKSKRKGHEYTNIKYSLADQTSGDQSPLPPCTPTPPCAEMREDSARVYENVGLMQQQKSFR

[3] = molecular target: T1, Tyrosine-protein phosphatase non-receptor type 1; assay: Allosteric inhibition of recombinant human PTP1B (1 to 321 residues) using pNPP as substrate preincubated for 5 mins followed by substrate addition measured after 10 mins
3T3-L1 = assay: Inhibition of insulin-resistance in insulin-resistant mouse 3T3-L1 cells assessed as increase in insulin receptor phosphorylation pretreated for 24 hrs followed by compound washout and further addition of insulin measured after 20 mins by Western blot analysis; format: functional, cell-based; conditions: dose 0.625-2.5 µM
Hepatocyte = assay: Inhibition of insulin-resistance in insulin-resistant C57BL/J mouse […] primary hepatocytes assessed as increase in insulin receptor phosphorylation pretreated for 24 hrs followed by compound washout and further addition of insulin measured after 20 mins by Western blot analysis; format: functional, cell-based; conditions: dose 0.625-2.5 µM
C2C12 = assay: Induction of glucose uptake in mouse C2C12 cells cultured in low glucose medium containing compound for 24 hrs; format: functional, cell-based; conditions: dose 0.625-2.5 µmol/L
[4] = Acute toxicity in Kunming mouse assessed as behavioural changes at 2000 mg/kg, po measured for 14 days; format: organism-based; conditions: in vivo, 336 h, time 14 day
[5] = Acute toxicity in Kunming mouse assessed as animal mortality at 2000 mg/kg, po measured for 14 days; format: organism-based; conditions: in vivo, 336 h, time 14 day
[6] = Acute toxicity in Kunming mouse assessed as change in cell morphology of liver at 2000 mg/kg, po measured for 14 days by H and E staining based analysis; format: organism-based; conditions: in vivo, 336 h, time 14 day
[7] = Toxicity in BKD db/db mouse assessed as effect on body weight at 40 to 80 mg/kg/day, po qd for 8 weeks; format: organism-based; conditions: in vivo, 1344 h, dose 40-80 mg/kg/day
[8] = Toxicity in BKD db/db mouse assessed as effect on food intake at 40 to 80 mg/kg/day, po qd for 8 weeks; format: organism-based; conditions: in vivo, 1344 h, dose 40-80 mg/kg/day
[9] = Toxicity in BKD db/db mouse assessed as effect on liver weight at 40 to 80 mg/kg/day, po qd for 8 weeks; format: organism-based; conditions: in vivo, 1344 h, dose 40-80 mg/kg/day
[10] = Toxicity in BKD db/db mouse assessed as effect on kidney weight at 40 to 80 mg/kg/day, po qd for 8 weeks; format: organism-based; conditions: in vivo, 1344 h, dose 40-80 mg/kg/day
[11] = Toxicity in BKD db/db mouse assessed as effect on epididymal white adipose tissue weight at 40 to 80 mg/kg/day, po qd for 8 weeks; format: organism-based; conditions: in vivo, 1344 h, dose 40-80 mg/kg/day
[12] = Toxicity in BKD db/db mouse assessed as effect on para-metrial white adipose tissue weight at 40 to 80 mg/kg/day, po qd for 8 weeks; format: organism-based; conditions: in vivo, 1344 h, dose 40-80 mg/kg/day
Mus musculus [13] = assay: Hypoglycemic activity in BKD db/db mouse assessed as decrease in serum insulin level at 40 to 80 mg/kg/day, po qd for 7 weeks; format: functional, organism-based; conditions: dose 40-80 mg/kg/day
Mus musculus [14] = assay: Hypoglycemic activity in BKD db/db mouse assessed as increase in insulin receptor phosphorylation in liver at 40 to 80 mg/kg/day, po for 8 weeks by Western blot analysis; format: functional, organism-based; conditions: dose 40-80 mg/kg/day
Mus musculus [15] = assay: Hypoglycemic activity in BKD db/db mouse assessed as increase in insulin receptor phosphorylation in skeletal muscle at 40 to 80 mg/kg/day, po for 8 weeks by Western blot analysis; format: functional, organism-based; conditions: dose 40-80 mg/kg/day
Mus musculus [16] = assay: Hypoglycemic activity in BKD db/db mouse assessed as regular arrangement of liver cells at 40 to 80 mg/kg/day, po for 8 weeks by H and E staining based analysis; format: functional, organism-based; conditions: dose 40-80 mg/kg/day

CCOc1ccc(Oc2ccc(C(=O)/C=C/c3cc(O)c(O)c(Br)c3Br)cc2)cc1
pIC50 [1]: 5.97
pIC50 [2]: < 4.70
pKi [3]: 5.63
inhibition (3T3-L1): Dose-dependent-effect
inhibition (Hepatocyte): Dose-dependent-effect
Activity (C2C12): Dose-dependent-effect
Activity [4]: Non-toxic
Activity [5]: Non-toxic
Activity [6]: Non-toxic
Activity [7]: Non-toxic
Activity [8]: Non-toxic
Activity [9]: Non-toxic
Activity [10]: Non-toxic
Activity [11]: Non-toxic
Activity [12]: Non-toxic
Activity (Mus musculus [13]): Active
Activity (Mus musculus [14]): Active
Activity (Mus musculus [15]): Active
Activity (Mus musculus [16]): Active
